ChEMBL document CHEMBL2311336 (Bioorg Med Chem Lett, 2013)

molecular target: E3 ubiquitin-protein ligase Mdm2 (Homo sapiens, UniProt Q00987, L33E); test: Inhibition of human His-tagged p53 (1 to 132 amino acid residues)/GST-tagged MDM2 L33E mutant (25 to 108 amino acid residues) interaction by HTRF assay
Sequence (Q00987 whole entry L33E, the tested form may be a part): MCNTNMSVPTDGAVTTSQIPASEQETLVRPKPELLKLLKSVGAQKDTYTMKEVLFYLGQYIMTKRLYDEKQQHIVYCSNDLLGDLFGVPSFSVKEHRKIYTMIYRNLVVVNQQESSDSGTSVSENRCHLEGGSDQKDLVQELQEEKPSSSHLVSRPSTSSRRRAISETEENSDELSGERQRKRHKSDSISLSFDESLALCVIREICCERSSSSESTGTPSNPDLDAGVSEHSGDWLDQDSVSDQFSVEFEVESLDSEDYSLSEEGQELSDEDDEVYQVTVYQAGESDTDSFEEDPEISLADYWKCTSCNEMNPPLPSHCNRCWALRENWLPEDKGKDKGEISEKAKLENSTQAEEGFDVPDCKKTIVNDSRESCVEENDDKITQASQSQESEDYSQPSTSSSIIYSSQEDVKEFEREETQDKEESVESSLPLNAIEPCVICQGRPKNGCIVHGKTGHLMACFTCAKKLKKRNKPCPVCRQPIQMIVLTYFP

Row | SMILES | IC50 [µM]
1 | CC(C)C1=C(C(=O)N2CC[C@H]2C(=O)N(C)C)SC2=N[C@@](C)(c3ccc(Cl)cc3)[C@@H](c3ccc(Cl)cc3)N21 | 0.14

molecular target: Tumour suppressor p53/oncoprotein Mdm2 (Homo sapiens, UniProt Q00987); test: Inhibition of human His-tagged p53/GST-tagged MDM2 interaction after 60 mins by chemiluminescence assay; assay type: protein assay
Sequence (P04637 whole entry): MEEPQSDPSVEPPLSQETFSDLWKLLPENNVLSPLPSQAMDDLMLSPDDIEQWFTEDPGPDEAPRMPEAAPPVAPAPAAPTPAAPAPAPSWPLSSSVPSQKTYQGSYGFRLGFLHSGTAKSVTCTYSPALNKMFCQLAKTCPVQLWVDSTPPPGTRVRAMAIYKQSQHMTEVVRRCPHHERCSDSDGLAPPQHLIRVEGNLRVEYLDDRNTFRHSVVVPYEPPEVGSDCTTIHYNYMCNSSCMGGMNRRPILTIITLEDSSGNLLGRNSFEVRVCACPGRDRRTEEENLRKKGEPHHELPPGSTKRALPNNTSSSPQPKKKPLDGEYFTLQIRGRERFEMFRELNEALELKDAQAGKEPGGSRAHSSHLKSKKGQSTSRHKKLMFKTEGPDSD
Sequence (Q00987 whole entry): as the sequence (Q00987 whole entry L33E, the tested form may be a part) above, with E33L counted along it

Row | SMILES | IC50 [µM]
2 | CC(=O)N1CCN(C(=O)[C@@H]2CCCN2C(=O)C2=C(C(C)C)N3C(=N[C@@](C)(c4ccc(Cl)cc4)[C@H]3c3ccc(Cl)cc3)S2)CC1 | 0.066
3 | CC(C)C1=C(C(=O)N(C)C)SC2=NC(C)(c3ccc(Cl)cc3)C(c3ccc(Cl)cc3)N21 (racemic) | 0.042
4 | CC(C)C1=C(C(=O)N2CCCC[C@H]2C(=O)N(C)C)SC2=NC(C)(c3ccc(Cl)cc3)C(c3ccc(Cl)cc3)N21 (mixture of isomers) | 0.17
5 | CC(C)C1=C(C(=O)N2CCC[C@H]2C(=O)N2CCOCC2)SC2=N[C@@](C)(c3ccc(Cl)cc3)[C@@H](c3ccc(Cl)cc3)N21 | 0.026
6 | CC(C)C1=C(C(=O)N2CCNC(=O)C2)SC2=N[C@](C)(c3ccc(Cl)cc3)[C@H](c3ccc(Cl)cc3)N21 | 1.5
7 | CC(C)C1=C(C(=O)N2CCC[C@H]2C(=O)N2C[C@@H](C)N[C@@H](C)C2)SC2=N[C@@](C)(c3ccc(Cl)cc3)[C@@H](c3ccc(Cl)cc3)N21 | 0.037
8 | CC(C)C1=C(C(=O)N2CCC[C@H]2C(=O)N2CCN(C)CC2)SC2=N[C@@](C)(c3ccc(Cl)cc3)[C@@H](c3ccc(Cl)cc3)N21 | 0.023
9 | CNC(=O)C1=C(C(C)C)N2C(=NC(C)(c3ccc(Cl)cc3)C2c2ccc(Cl)cc2)S1 (racemic) | 1.1
10 | CC(C)C1=C(C(=O)N(C)C)SC2=N[C@@](C)(c3ccc(Cl)cc3)[C@@H](c3ccc(Cl)cc3)N21 | 0.026
11 | CC(C)C1=C(C(=O)N2CCNC(=O)C2)SC2=N[C@@](C)(c3ccc(Cl)cc3)[C@@H](c3ccc(Cl)cc3)N21 | 0.092
12 | CC(C)C1=C(C(=O)N2CCC[C@H]2C(=O)N2CCNC(=O)C2)SC2=N[C@@](C)(c3ccc(Cl)cc3)[C@@H](c3ccc(Cl)cc3)N21 | 0.079
13 | COCCN(C)C(=O)[C@@H]1CCCN1C(=O)C1=C(C(C)C)N2C(=N[C@@](C)(c3ccc(Cl)cc3)[C@H]2c2ccc(Cl)cc2)S1 | 0.046
14 | CC(C)C1=C(C(=O)N2CCNC(=O)C2)SC2=NC(C)(c3ccc(Cl)cc3)C(c3ccc(Cl)cc3)N21 (racemic) | 0.41
15 | CC(C)C1=C(C(N)=O)SC2=NC(C)(c3ccc(Cl)cc3)C(c3ccc(Cl)cc3)N21 (racemic) | 0.78
16 | CC(C)C1=C(C(=O)N2CCCC2)SC2=NC(C)(c3ccc(Cl)cc3)C(c3ccc(Cl)cc3)N21 (racemic) | 0.2
17 | CC(C)C1=C(C(=O)N2CNC(=O)C2)SC2=NC(C)(c3ccc(Cl)cc3)C(c3ccc(Cl)cc3)N21 (racemic) | 0.94
